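96-well plates; 48 h exposure; 5 concentrations. Endpoints by linear interpolation between flanking doses. Not reached: highest tested concentration assigned. Here, GI50 denotes the concentration required for 50% inhibition of growth. TGI is the concentration that stops growth completely.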
How the values were obtained:
Experiment in all cases: NCI anticancer screen, dose series, 48 h
UACC-257 melanoma = tested on: UACC-257 melanoma
KM12 colon = tested on: KM12 colon
RXF 393 renal = tested on: RXF 393 renal
M14 melanoma = tested on: M14 melanoma
HOP-92 NSCLC = tested on: HOP-92 NSCLC
NCI-H23 lung = tested on: NCI-H23 lung
A549 NSCLC = tested on: A549 NSCLC
CAKI-1 renal = tested on: CAKI-1 renal
MALME-3M melanoma = tested on: MALME-3M melanoma
OVCAR-5 ovarian = tested on: OVCAR-5 ovarian
SW-620 colon = tested on: SW-620 colon
SR leukemia = tested on: SR leukemia
OVCAR-3 ovarian = tested on: OVCAR-3 ovarian
UO-31 renal = tested on: UO-31 renal
SN12C renal = tested on: SN12C renal
HOP-62 NSCLC = tested on: HOP-62 NSCLC
NCI-H460 lung = tested on: NCI-H460 lung
OVCAR-8 ovarian = tested on: OVCAR-8 ovarian
HCT-15 colon = tested on: HCT-15 colon
HCT-116 colon = tested on: HCT-116 colon
SNB-75 CNS = tested on: SNB-75 CNS
NCI-H522 lung = tested on: NCI-H522 lung
DLD-1 colon = tested on: DLD-1 colon
SF-268 CNS = tested on: SF-268 CNS
786-0 renal = tested on: 786-0 renal
SK-MEL-5 melanoma = tested on: SK-MEL-5 melanoma
DMS 114 small cell lung = tested on: DMS 114 small cell lung
SK-MEL-28 melanoma = tested on: SK-MEL-28 melanoma
SF-539 CNS = tested on: SF-539 CNS
HT29 colon = tested on: HT29 colon
EKVX NSCLC = tested on: EKVX NSCLC
RPMI-8226 leukemia = tested on: RPMI-8226 leukemia
U251 CNS = tested on: U251 CNS
SF-295 CNS = tested on: SF-295 CNS
COLO 205 colon = tested on: COLO 205 colon
SK-OV-3 ovarian = tested on: SK-OV-3 ovarian
A498 renal = tested on: A498 renal
HCC-2998 colon = tested on: HCC-2998 colon
TK-10 renal = tested on: TK-10 renal
KM20L2 colon = tested on: KM20L2 colon
UACC-62 melanoma = tested on: UACC-62 melanoma
ACHN renal = tested on: ACHN renal
SNB-19 CNS = tested on: SNB-19 CNS
MOLT-4 leukemia = tested on: MOLT-4 leukemia
LOX IMVI melanoma = tested on: LOX IMVI melanoma
LXFL 529 NSCLC = tested on: LXFL 529 NSCLC
IGROV1 ovarian = tested on: IGROV1 ovarian
CCRF-CEM leukemia = tested on: CCRF-CEM leukemia
RXF-631 renal = tested on: RXF-631 renal
SNB-78 CNS = tested on: SNB-78 CNS
M19-MEL melanoma = tested on: M19-MEL melanoma
OVCAR-4 ovarian = tested on: OVCAR-4 ovarian

COC(C(=O)[O][Ge]([CH3])([CH3])[CH3])c1ccccc1 (centres undefined)
GI50 (UACC-257 melanoma): > 100 µM
TGI (UACC-257 melanoma): > 100 µM
GI50 (KM12 colon): > 100 µM
TGI (KM12 colon): > 100 µM
GI50 (RXF 393 renal): > 100 µM
TGI (RXF 393 renal): > 100 µM
GI50 (M14 melanoma): > 100 µM
TGI (M14 melanoma): > 100 µM
GI50 (HOP-92 NSCLC): > 100 µM
TGI (HOP-92 NSCLC): > 100 µM
GI50 (NCI-H23 lung): > 100 µM
TGI (NCI-H23 lung): > 100 µM
GI50 (A549 NSCLC): > 100 µM
TGI (A549 NSCLC): > 100 µM
GI50 (CAKI-1 renal): > 100 µM
TGI (CAKI-1 renal): > 100 µM
GI50 (MALME-3M melanoma): > 100 µM
TGI (MALME-3M melanoma): > 100 µM
GI50 (OVCAR-5 ovarian): > 100 µM
TGI (OVCAR-5 ovarian): > 100 µM
GI50 (SW-620 colon): > 100 µM
TGI (SW-620 colon): > 100 µM
GI50 (SR leukemia): > 100 µM
TGI (SR leukemia): > 100 µM
GI50 (OVCAR-3 ovarian): > 100 µM
TGI (OVCAR-3 ovarian): > 100 µM
GI50 (UO-31 renal): > 100 µM
TGI (UO-31 renal): > 100 µM
GI50 (SN12C renal): > 100 µM
TGI (SN12C renal): > 100 µM
GI50 (HOP-62 NSCLC): > 100 µM
TGI (HOP-62 NSCLC): > 100 µM
GI50 (NCI-H460 lung): > 100 µM
TGI (NCI-H460 lung): > 100 µM
GI50 (OVCAR-8 ovarian): > 100 µM
TGI (OVCAR-8 ovarian): > 100 µM
GI50 (HCT-15 colon): > 100 µM
TGI (HCT-15 colon): > 100 µM
GI50 (HCT-116 colon): > 100 µM
TGI (HCT-116 colon): > 100 µM
GI50 (SNB-75 CNS): > 100 µM
TGI (SNB-75 CNS): > 100 µM
GI50 (NCI-H522 lung): > 100 µM
TGI (NCI-H522 lung): > 100 µM
GI50 (DLD-1 colon): > 100 µM
TGI (DLD-1 colon): > 100 µM
GI50 (SF-268 CNS): > 100 µM
TGI (SF-268 CNS): > 100 µM
GI50 (786-0 renal): > 100 µM
TGI (786-0 renal): > 100 µM
GI50 (SK-MEL-5 melanoma): > 100 µM
TGI (SK-MEL-5 melanoma): > 100 µM
GI50 (DMS 114 small cell lung): > 100 µM
TGI (DMS 114 small cell lung): > 100 µM
GI50 (SK-MEL-28 melanoma): > 100 µM
TGI (SK-MEL-28 melanoma): > 100 µM
GI50 (SF-539 CNS): > 100 µM
TGI (SF-539 CNS): > 100 µM
GI50 (HT29 colon): > 100 µM
TGI (HT29 colon): > 100 µM
GI50 (EKVX NSCLC): > 100 µM
TGI (EKVX NSCLC): > 100 µM
GI50 (RPMI-8226 leukemia): > 100 µM
TGI (RPMI-8226 leukemia): > 100 µM
GI50 (U251 CNS): > 100 µM
TGI (U251 CNS): > 100 µM
GI50 (SF-295 CNS): > 100 µM
TGI (SF-295 CNS): > 100 µM
GI50 (COLO 205 colon): > 100 µM
TGI (COLO 205 colon): > 100 µM
GI50 (SK-OV-3 ovarian): > 100 µM
TGI (SK-OV-3 ovarian): > 100 µM
GI50 (A498 renal): > 100 µM
TGI (A498 renal): > 100 µM
GI50 (HCC-2998 colon): > 100 µM
TGI (HCC-2998 colon): > 100 µM
GI50 (TK-10 renal): > 100 µM
TGI (TK-10 renal): > 100 µM
GI50 (KM20L2 colon): > 100 µM
TGI (KM20L2 colon): > 100 µM
GI50 (UACC-62 melanoma): > 100 µM
TGI (UACC-62 melanoma): > 100 µM
GI50 (ACHN renal): > 100 µM
TGI (ACHN renal): > 100 µM
GI50 (SNB-19 CNS): > 100 µM
TGI (SNB-19 CNS): > 100 µM
GI50 (MOLT-4 leukemia): > 100 µM
TGI (MOLT-4 leukemia): > 100 µM
GI50 (LOX IMVI melanoma): > 100 µM
TGI (LOX IMVI melanoma): > 100 µM
GI50 (LXFL 529 NSCLC): > 100 µM
TGI (LXFL 529 NSCLC): > 100 µM
GI50 (IGROV1 ovarian): > 100 µM
TGI (IGROV1 ovarian): > 100 µM
GI50 (CCRF-CEM leukemia): > 100 µM
TGI (CCRF-CEM leukemia): > 100 µM
GI50 (RXF-631 renal): > 100 µM
TGI (RXF-631 renal): > 100 µM
GI50 (SNB-78 CNS): > 100 µM
TGI (SNB-78 CNS): > 100 µM
GI50 (M19-MEL melanoma): > 100 µM
TGI (M19-MEL melanoma): > 100 µM
GI50 (OVCAR-4 ovarian): > 100 µM
TGI (OVCAR-4 ovarian): > 100 µM

From PubChem BioAssay (NCI)
